Results reported in patent US7662775B2 (Astellas Pharma Inc., priority 2000, dated 2010).
pEC50: −log10 of the molar value.

What was measured:
[1] = target: T1, polypeptide consisting of the amino acid sequence of SEQ ID NO: 2 (Homo sapiens, UniProt Q8TDV5); test: Intracellular cAMP amount in transfected 293-EBNA cells, enzymeimmunoassay (Example 11); format: cell-based; settings: 293-EBNA cells transfected with pEF-BOS-NA; 1 mmol/L IBMX; 30 minutes
T1 construct: expressed in transfected cells; host or cells: 293-EBNA cells, transient transfection with plasmid pEF-BOS-NA
T1 sequence (Q8TDV5 1-335): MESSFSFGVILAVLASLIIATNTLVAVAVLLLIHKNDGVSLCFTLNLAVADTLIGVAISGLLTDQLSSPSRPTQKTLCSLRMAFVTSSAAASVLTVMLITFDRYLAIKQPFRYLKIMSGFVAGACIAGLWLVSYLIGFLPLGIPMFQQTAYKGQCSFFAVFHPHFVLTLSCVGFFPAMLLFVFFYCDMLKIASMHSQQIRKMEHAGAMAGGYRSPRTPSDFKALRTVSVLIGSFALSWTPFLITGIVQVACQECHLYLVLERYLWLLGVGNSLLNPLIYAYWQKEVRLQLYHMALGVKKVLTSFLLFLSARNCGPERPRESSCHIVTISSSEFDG
Method: (§1) The pEF-BOS-NA plasmid used in Example 6 was also used in the present Example.
293-EBNA Cells (1×10^4 cells/well) were seeded on a 96-well plate coated with collagen, and cultured for 24 hours. Then, a transfection reagent (LIPOFECTAMINE 2000; GIBCO BRL) was used to transfect 3 ng of a plasmid pEF-BOS-NA or a plasmid pEF-BOS (negative control vector) to the cells. The transfected cells were further cultured for 20 hours, and the medium was aspirated. After 80 μL of 1 mmol/L IBMX (3-isobutyl-1-methylxanthine)/0.1% BSA/DMEM was added, the whole was incubated at 37° C. for 10 minutes in the presence of 5% CO2. Then, a test compound diluted with 20 μL of 1 mmol/L IBMX/0.1% BSA/DMEM was added, and the whole was incubated for 30 minutes. After the medium was aspirated, the resulting cells were used for the measurement of an amount of cAMP. A commercially available cAMP enzymeimmunoassay system (cyclic AMP kit; Nihon Schering) was used to measure the amount of cAMP.

[2] = target: T1, polypeptide consisting of the amino acid sequence of SEQ ID NO: 2; test: CRE-luciferase reporter screening in transfected 293-EBNA cells (Example 10); format: cell-based; settings: 293-EBNA cells transfected with pEF-BOS-NA and pCRE-Luc; 6 hours; specific versus pEF-BOS control vector
Method: as §1
293-EBNA cells (7×10^4 cells/well) were seeded on a 24-well plate coated with collagen, and cultured overnight in a Dulbecco modified Eagles' medium (DMEM) containing 1% fetal calf serum (FCS). Then, a transfection reagent (LIPOFECTAMINE 2000; GIBCO BRL) was used to transfect 0.1 ng of a plasmid pEF-BOS-NA or a plasmid pEF-BOS (negative control vector) and 20 ng of a pCRE-Luc vector (CLONTECH) to the cells. The transfected cells were further cultured for 18-20 hours, and then a test compound diluted with a medium containing 0.1% BSA was added, and the whole was incubated at 37° C. for 6 hours in the presence of 5% CO2. After the medium was aspirated, the cells were lysed with a cell lysing solution (cell lysis buffer LCβ; Toyo Ink Mfg.). A luciferase activity of the lysate was measured by a commercially available measuring kit (PicaGene Luminescence kit; Toyo Ink Mfg.) and a measuring apparatus (ML3000 microtiter plate luminometer; Dynatech Laboratories).
L-α-lysophosphatidylcholine oleoyl (L1881; SIGMA), a biocomponent, could be obtained.

[3] = system: mouse pancreatic β cell line MIN6; test: Insulin secretion from mouse pancreatic β cell line MIN6, Part 2 (Example 12); format: cell-based; settings: MIN6 cells, 16.8 mmol/L glucose, 30 minutes
Method: MIN6 cells (2.5×10^5 cells) were seeded on a 24-well plate coated with collagen, and cultured for 2 days in a DMEM containing 10% FCS (Cat. No. 11995-065; GIBCO BRL). The medium was aspirated, and 0.4 mL of a glucose-free DMEM containing 10% FCS (Cat. No. 11966-025; GIBCO BRL) was added. The whole was incubated at 37° C. for 2 hours in the presence of 5% CO2.
After the medium was aspirated, 0.5 mL of a solution of L-α-lysophosphatidylcholine oleoyl, the compound selected by the screening method in Example 10, diluted with 2.8 mmol/L or 16.8 mmol/L glucose-containing DMEM (Cat. No. 11966-025; GIBCO BRL) was added, and the whole was incubated at 37° C. for 30 minutes in the presence of 5% CO2. A supernatant was used for measuring an amount of insulin secreted.
(§2) A commercially available insulin radioimmunoassay kit (Phadeseph insulin; Pharmacia Upjohn) was used for the measurement of the amount of insulin secreted.

GK (Goto-Kakizaki) rats = test: Glucose tolerance test for GK rats, type II diabetes model (Example 9); format: in vivo, rat; settings: 100 mg/kg orally administered, 2 g/kg oral glucose, 30 and 60 minutes after glucose
Method: (§3) SD rats (4 weeks old; CLEA JAPAN) were forced to fast overnight, and 2 g/kg of glucose was orally administered. 100 mg/kg of 2-(pyridine-4-yl)ethyl thiobenzoate (LT-1 Z 0059519) had been intraperitoneally administered 5 minutes before the glucose administration. An appropriate amount of blood was taken 0 minute, 30 minutes, 60 minutes, and 120 minutes after the glucose administration, and used for the measurement of a blood glucose level and a concentration of plasma insulin.
(§4) For measuring the blood glucose level, a supernatant obtained by mixing blood and 0.33 mol/L perchloric acid (blood:0.33 mol/L perchloric acid=1:10) and centrifuging the mixture (3000×g, 10 minutes, 4° C.) was used. For measuring the concentration of plasma insulin, a supernatant obtained by centrifuging blood (3000×g, 10 minutes, 4° C.) was used. Further, Glucose C test Wako (Wako) was used in the measurement of the blood glucose level, and a rat insulin assay system (Amersham) was used in the measurement of the concentration of plasma insulin.
Then, a glucose tolerance test for GK (Goto-Kakizaki) rats (type II diabetes models with incomplete insulin secretion; 7 weeks old; Charles River Japan) by one oral dose was carried out. […]

[4] = system: mouse pancreatic β cell line MIN6; test: Insulin secretion from mouse pancreatic β cell line MIN6, Part 1 (Example 8); format: cell-based; settings: MIN6 cells, 20 minutes
Method: MIN6 cells (2×10^5 cells) were seeded on a 24-well plate, and cultured for 2 days in a DMEM containing 10% FCS. The medium was aspirated, and the cells were washed with KRB-HEPES (140 mmol/L NaCl, 3.6 mmol/L KC1, 0.5 mmol/L NaH2PO4, 0.5 mmol/L MgSO4, 1.5 mmol/L CaCl2, 10 mmol/L Hepes, 2 mmol/L NaHCO3, 0.1% BSA, pH7.4). After 2.8 mmol/L glucose-containing KRB-HEPES (1 ml) was added, the whole was incubated at 37° C. for 30-60 minutes in the presence of 5% CO2.
After the buffer was aspirated, one of the four compounds obtained by the screening in Example 7, i.e., 2-(pyridine-4-yl)ethyl thiobenzoate, in the form of a solution (0.5 ml) prepared by diluting the compound with 2.8 mmol/L or 16.8 mmol/L glucose-containing KRB-HEPES, was added, and the whole was incubated at 37° C. for 20 minutes in the presence of 5% CO2. A supernatant was used for measuring an amount of insulin secreted.
as §2

SD rats = test: Glucose tolerance test for SD rats (Example 9); format: in vivo, rat; settings: 100 mg/kg intraperitoneally 5 minutes before 2 g/kg oral glucose, 30 minutes after glucose, p<0.05 vs control
Method: as §3, §4
FIG. 1 illustrates a time course of the concentration of plasma insulin (unit=ng/mL) after the oral administration of glucose, and FIG. 2 illustrates a time course of the blood glucose level (unit=mg/dL) after the oral administration of glucose. […]

[5] = target: T1, polypeptide consisting of the amino acid sequence of SEQ ID NO: 2; test: CRE-luciferase reporter screening in transfected 293-EBNA cells (Example 7); format: cell-based; settings: 293-EBNA cells transfected with pEF-BOS-NA and pCRE-Luc; 5-6 hours incubation; read-out: EC50 value (increase of reporter activity)
Method: as §1
293-EBNA cells, (1×10^4 cells/well) were seeded on a 96-well plate coated with collagen, and cultured overnight in a Dulbecco modified Eagles' medium (DMEM) containing 10% fetal calf serum (FCS). Then, a transfection reagent (LIPOFECTAMINE 2000; GIBCO BRL) was used to transfect 0.01 ng of a plasmid pEF-BOS-NA or a plasmid pEF-BOS (negative control vector) and 5 ng of a pCRE-Luc vector (CLONTECH) to the cells. […] After the medium was aspirated, the cells were lysed with a cell lysing solution (cell lysis buffer LCβ; Toyo Ink Mfg.). A luciferase activity of the lysate was measured by a commercially available measuring kit (PicaGene Luminescent kit; Toyo Ink Mfg.) and a measuring apparatus (ML3000 microtiter plate luminometer; Dynatech Laboratories).

Structure (SMILES) | amount of cAMP [1] | reporter activity (luciferase) [2] | amount of insulin secreted [3] | increase of the blood glucose level by the glucose administration (GK (Goto-Kakizaki) rats) | amount of insulin secreted ([4]; 2.8 mmol/L glucose) | amount of insulin secreted ([4]; 16.8 mmol/L glucose) | concentration of plasma insulin (SD rats) | increase of the blood glucose level by the glucose administration (SD rats) | pEC50 [5]
CCCCCCCC/C=C\CCCCCCCC(=O)OC[C@@H](O)COP(=O)([O-])OCC[N+](C)(C)C [L-α-lysophosphatidylcholine oleoyl] | exhibited an increase of the amount of cAMP specifically in the cells | increase of a reporter activity specifically in cells | caused an increase |  |  |  |  |  | 
O=C(SCCc1ccncc1)c1ccccc1 |  |  |  | significantly suppressed | did not cause an increase | caused an increase | significant increase | significantly suppressed | 5.49
